Source: patent US5436273A, “Psychoactive propargylamine derivatives used in the treatment of anxiety, psychotic states or aggression” (Lowchol Scientific, Inc., priority 1993, dated 1995)
Like-named read-outs stand apart in the source and are kept apart here.

Legend:
[1] = in vivo; conditions: mouse, ip
[2] = Acute toxicity test; conditions: mouse, in vivo
Procedure: CD #1 mice (20-30 g) are used for this test. The animals are individualy housed in glass beakers for a 2 hour period of acclimatization without food and water.

[3] = system: isolation induced aggressive behavior in mice; experiment: Inhibition of isolation induced fighting behavior in mice; assay type: in vivo, CD #1 mice; conditions: for ED50: Mus musculus, ip, 0.5 h, read-out: ED50 (dose that suppressed aggressive behavior in 50% of the animals); for inhibition of aggressive behavior (in words): mice
Procedure: 1. Inhibition of Isolation Induced Fighting Behavior in Mice
After this period of confinement, the animals usually develop a marked intraspecific aggressive behavior when they are placed in the same cage.
The compound to be studied is administered i.p. to the selected groups (N=8 pairs/dose×5 doses) and the aggressive behavior is tested again 30 minutes later. […] A one week washout period is allowed between treatments.

[4] = system: conditioned avoidance response in rats; experiment: Inhibition of conditioned avoidance response in rats; assay type: in vivo, Sprague Dawley rats
Description: 6. Inhibition of Conditioned Avoidance Response in Rats
Male Sprague Dawley rats (200-250 g) are trained to avoid an electric foot shock, by continuously changing room with the appropriate visuals and auditory signals, in an automatic 2-way conditioned avoidance apparatus (Coulbourn Instrument Co.). Only the animals that perform at least a 70% avoidance (3 successive training sessions) are kept for the experiment.
The day of the experiment, the selected animals are submitted to a pre-treatment control session. The compound to be studied is then administered i.p. and the animals are placed back in the apparatus for evaluation 30 minutes later. Diazepam was used as a standard.

[5] = system: exploratory behavior in rats; experiment: Inhibition of exploratory behavior in rats (hole poking); assay type: in vivo, Sprague-Dawley rats; conditions: for ED50: Rattus norvegicus, ip, 0.5 h, read-out: dose required to diminish by 50% the exploratory behavior
Procedure: 8. Inhibition of Exploratory Behavior in Rats (Hole Poking).
This test is done with Sprague-Dawley male rats of about 300 g. Activity is evaluated with a […] XYZ activity cage connected to a […] […] DCM-4. A perforated plate (16 holes of 2-5 cm diameter) is placed in the enclosure and on the activity case to register vertical activity. The number of times the rat placed his snout into the holes during a 10 minute period is recorded. The test was started 30 minutes after the interperitoneal injection of the compound to be studied.
The results which are reported in Table 8 are expressed in terms of the dose required to diminish by 50% the exploratory behavior, with reference to animals injected with the carrier only. Diazepam and buspirone are used as standards.

[6] = Rotarod neurotoxicity test in mice; conditions: mouse; for TD50 at 0.5 h: in vivo, ip
[7] = system: righting reflex / ethanol narcosis in mice; experiment: Potentiation of sleeping time induced by ethanol in mice; assay type: in vivo, CD #1 mice
Procedure: 7. Potentiation of Sleeping Time Induced by Ethanol in Mice
This test was done with male CD #1 mice of 25-35 g. The mice are injected intraperitoneally (8 mice per dose). A subhypnotic dose of ethanol (12 ml/kg of 50% ethanol solution) is administered orally 30 minutes later.
The loss of the righting reflex is evaluated, for each animal, 30 minutes after the administration of the alcohol. It is considered that there is a potentialization of ethanol narcosis if the righting time exceeded 30 seconds.
The results which are reported in Table 7 are expressed in terms of the percentage of animals displaying a loss of the righting reflex versus the administered dose. Chlorpromazine (5 mg/kg i.p.) is used as a standard.

[8] = system: spontaneous motor activity in rats; experiment: Inhibition of spontaneous motor activity in rats; assay type: in vivo, Sprague Dawley rats; conditions: for ED50: Rattus norvegicus, ip, 0.5 h, i.p., 30 minutes
Procedure: (§1) Two animals are studied simultaneously, one treated and one control. After a 2 hour period of acclimatization to the room, a first activity count of 10 minutes duration is perfomed. The compound to be studied is then administered i.p. and the spontaneous activity is reevaluated 30 minutes later over a period of 10 minutes.
5. Inhibition of Spontaneous Motor Activity in Rats
The method is the same as described above for mice, except that because of the size of the animals (Sprague Dawley rats; 300 g), the test and control animals are not evaluated simultaneously, but alternatively.

[9] = system: spontaneous motor activity in mice; experiment: Inhibition of spontaneous motor activity in mice; assay type: in vivo, CD #1 mice; conditions: for ED50: Mus musculus, ip, 0.5 h
Procedure: 4. Inhibition of Spontaneous Motor Activity in Mice
Female CD #1 mice (20-30 g) are used for this experiment. The effect of the compound to be studied on spontaneous activity was evaluated by an automated […] XYZ system. This system allows the simultaneous quantification of the following parameters:
number of stereotypic movements;
number of vertical movements;
number of clockwise revolutions; and
number of counterclockwise revolutions.
as §1

[10] = Effect on body temperature, buspirone in rats; assay type: in vivo, Sprague Dawley rats
Procedure: Female CD #1 mice (20-30 g) are used. Rectal temperature is recorded before and one hour after s.c. administration of the compound to be studied (N=8/doses×4 doses). The solvent used is sterile water for intravenous injection.
The results which are reported in Table 9 are expressed in terms of the variation of temperature for different doses. Buspirone was tested on Sprague Dawley rats.

[11] = i.p., 30 minutes after administration, probit analysis

CC(N)C#Cc1ccc(C#N)cc1 (centres unmarked) [Compound 2, 2-Amino-4-(p-cyanophenyl)-3-butyne]
TD50 at 0.5 h [1]: > 100 mg/kg
LD50 ([2]; ip, probit analysis): > 100 mg/kg
ED50 [3, 11]: 8 mg/kg
inhibition of aggressive behavior (in words) ([3]; i.p.): particularly potent inhibitors

FC(F)(F)c1cccc(C#CCNc2ccco2)c1 [Compound 15]
TD50 at 0.5 h [1]: 193 mg/kg
LD50 ([2]; ip): 351 mg/kg
ED50 [3, 11]: 19 mg/kg

COc1ccc(C#CC(C)N)cc1 (centres unmarked) [Compound 23]
LD50 ([2]; ip, probit analysis): > 100 mg/kg
ED50 [3, 11]: 24 mg/kg

CC(N)C#Cc1ccccc1 (centres unmarked) [Compound 30]
TD50 at 0.5 h [1]: ~50 mg/kg
LD50 ([2]; ip): 66 mg/kg
ED50 [3, 11]: 15 mg/kg

CCN(CC)C(C)C#Cc1ccccc1 (centres unmarked) [Compound 33]
TD50 at 0.5 h [1]: ≥ 88 mg/kg
LD50 ([2]; ip): 88 mg/kg
ED50 [3, 11]: 44 mg/kg

CC(N)C#Cc1ccc(Cl)cc1 (centres unmarked) [Compound 1, 2-Amino-4-(p-chlorophenyl)-3-butyne]
TD50 at 0.5 h [1]: ~65 mg/kg
LD50 ([2]; ip, probit analysis): 130 mg/kg
ED50 [3, 11]: 12 mg/kg
inhibition of aggressive behavior (in words) ([3]; i.p.): particularly potent inhibitors

CC(N)C#Cc1ccc(C(=O)N(C)C)cc1 (centres unmarked) [Compound 21]
LD50 ([2]; ip, probit analysis): < 100 mg/kg

CCC(N)C#Cc1ccccc1 (centres unmarked) [Compound 25]
TD50 at 0.5 h [1]: ≥ 84 mg/kg
LD50 ([2]; ip): 84 mg/kg
ED50 [3, 11]: 16 mg/kg

CN1C(=O)CN=C(c2ccccc2)c2cc(Cl)ccc21 [Diazepam]
conditioned avoidance response ([4]; 5 mg/kg i.p.): 57.5%
ED50 [5]: 14.2 ± 5 mg/kg

FC(F)(F)c1cccc(C#CCNCCc2ccccc2)c1 [Compound 9]
TD50 at 0.5 h [1]: 126 mg/kg
LD50 ([2]; ip): 252 mg/kg
ED50 [3, 11]: 58 mg/kg

CC(N)C#Cc1ccc(C(N)=O)cc1 (centres unmarked) [Compound 22]
LD50 ([2]; ip, probit analysis): > 100 mg/kg

CCNCC#Cc1ccccc1 [Compound 27]
TD50 at 0.5 h [1]: 88 mg/kg
LD50 ([2]; ip): 98 mg/kg
ED50 [3, 11]: 17 mg/kg

CNC(C)C#Cc1ccccc1 (centres unmarked) [Compound 31]
TD50 at 0.5 h [6]: ≥ 95 mg/kg
LD50 ([2]; ip, probit analysis): 95 mg/kg
ED50 [3]: 12 mg/kg

C#CC(C)N(C)C (centres unmarked) [Compound 35]
ED50 [3, 11]: 92 mg/kg

C(#Cc1ccccc1)CN1CCCCC1 [Compound 11]
TD50 at 0.5 h [1]: 132 mg/kg
LD50 ([2]; ip): 188 mg/kg
ED50 [3, 11]: 27 mg/kg

CC(C)NC(C)C#Cc1ccccc1 (centres unmarked) [Compound 13]
LD50 ([2]; ip, probit analysis): 120 mg/kg
ED50 [3, 11]: 27 mg/kg

CC(N)C#Cc1cccc(Cl)c1 (centres unmarked) [Compound 24]
TD50 at 0.5 h [1]: 50 mg/kg
LD50 ([2]; ip): > 100 mg/kg

CC(C#Cc1cccc(C(F)(F)F)c1)N(C)C (centres unmarked) [Compound 7]
TD50 at 0.5 h [1]: 153 mg/kg
LD50 ([2]; ip): 220 mg/kg
ED50 [3, 11]: 38 mg/kg

NCC#Cc1ccccc1 [Compound 26]
LD50 ([2]; ip, probit analysis): ≥ 100 mg/kg

CN(C)CCCN1c2ccccc2Sc2ccc(Cl)cc21 [Chlorpromazine, reference compound]
percentage of animals displaying a loss of the righting reflex ([7]; 5 mg/kg i.p., with ethanol): 100%

CC(C#Cc1cccc(C(F)(F)F)c1)NCc1ccccc1 (centres unmarked) [Compound 17]
TD50 at 0.5 h [1]: 123 mg/kg
LD50 ([2]; ip): 366 mg/kg
ED50 [3, 11]: 50 mg/kg

CN(CC#Cc1cccc(C(F)(F)F)c1)Cc1ccccc1 [Compound 5]
TD50 at 0.5 h [1]: 334 mg/kg
LD50 ([2]; ip): 416 mg/kg
ED50 [3, 11]: 28 mg/kg

CC(C#Cc1ccccc1)Nc1ccco1 (centres unmarked) [Compound 18]
LD50 ([2]; ip, probit analysis): ~300 mg/kg
ED50 [3, 11]: 64 mg/kg

C#CC(C)(C)N [Compound 36]
TD50 at 0.5 h [1]: 391 mg/kg
LD50 ([2]; ip): 779 mg/kg
ED50 [3, 11]: 176 mg/kg

CC(N)C#Cc1ccc([N+](=O)[O-])cc1 (centres unmarked) [Compound 20]
TD50 at 0.5 h [1]: ~120 mg/kg
LD50 ([2]; ip): 152 mg/kg
ED50 [3, 11]: 10 mg/kg

CC(C#Cc1cccc(C(F)(F)F)c1)Nc1ccco1 (centres unmarked) [Compound 19]
ED50 [3, 11]: 73 mg/kg

O=C1CC2(CCCC2)CC(=O)N1CCCCN1CCN(c2ncccn2)CC1 [Buspirone, reference compound]
inhibition of conditioned avoidance response (in words) ([4]; rats): inhibit conditioned avoidance in rats, but are less active than diazepam
TD50 ([6]; rotarod, po): 135 mg/kg
inhibition of spontaneous motor activity (in words) [8]: inhibit spontaneous motor activity in mice and rats
ED50 ([8]; read-out: ED50, clockwise revolutions): 2.3 ± 0.9 mg/kg
ED50 ([8]; read-out: ED50, counterclockwise revolutions): 2.9 ± 0.7 mg/kg
ED50 ([8]; read-out: ED50, horizontal activity): 2.7 ± 0.8 mg/kg
ED50 ([8]; read-out: ED50, movement time): 3.2 ± 0.6 mg/kg
ED50 ([8]; read-out: ED50, number of movements): 5.3 ± 0.9 mg/kg
ED50 ([8]; read-out: ED50, number of stereotypic movements): 3.1 ± 0.8 mg/kg
ED50 ([8]; read-out: ED50, stereotypy time): 1.7 ± 0.6 mg/kg
ED50 ([8]; read-out: ED50, total distance): 2.8 ± 0.7 mg/kg
inhibition of spontaneous motor activity (in words) [9]: inhibit spontaneous motor activity in mice and rats
ED50 ([9]; i.p., 30 minutes, read-out: ED50, clockwise revolutions): 17.9 ± 6.9 mg/kg
ED50 ([9]; i.p., 30 minutes, read-out: ED50, horizontal activity): 20.5 ± 16.7 mg/kg
ED50 ([9]; i.p., 30 minutes, read-out: ED50, movement time): 19.9 ± 8.9 mg/kg
ED50 ([9]; i.p., 30 minutes, read-out: ED50, stereotypy time): 22.7 ± 13.7 mg/kg
ED50 ([9]; i.p., 30 minutes, read-out: ED50, total distance): 22.6 ± 15.8 mg/kg
ED50, counterclockwise revolutions ([9]; i.p., 30 minutes): no dose-response
ED50, number of movements ([9]; i.p., 30 minutes): no dose-response
ED50, number of stereotypic movements ([9]; i.p., 30 minutes): no dose-response
ED50, vertical activity ([9]; i.p., 30 minutes): no dose-response
ED50, vertical movements ([9]; i.p., 30 minutes): no dose-response
ED50, vertical time ([9]; i.p., 30 minutes): no dose-response
potentiation of ethanol (in words) ([7]; subhypnotic dose of ethanol, mice): more effective than compound N^o 3
LD50 ([2]; po, read-out: LD50): 622 mg/kg
Temp. Difference from Control ([10]; dose 10, Sprague Dawley rats): -2.7
Temp. Difference from Control ([10]; dose 30, Sprague Dawley rats): -3.6
Temp. Difference from Control ([10]; dose 100, Sprague Dawley rats): -5.8
ED50 ([5]; i.p., 30 minutes, rats): 2.8 ± 0.6 mg/kg
inhibition of exploratory behavior (in words) ([5]; rats): more potent, in this respect, than diazepam but they rapidly lose their ability to produce this effect after the first administration

CC(C#Cc1ccccc1)NCc1ccccc1 (centres unmarked) [Compound 16]
TD50 at 0.5 h [1]: 170 mg/kg
LD50 ([2]; ip): 309 mg/kg
ED50 [3, 11]: 101 mg/kg

CCNC(C)C#Cc1ccccc1 (centres unmarked) [Compound 32]
TD50 at 0.5 h [6]: ≥ 120 mg/kg
LD50 ([2]; ip, probit analysis): 120 mg/kg
ED50 [3]: 23 mg/kg

C#CC(C)NC (centres unmarked) [Compound 34]
LD50 ([2]; ip, probit analysis): 828 mg/kg
ED50 [3, 11]: 26 mg/kg
